ChEMBL document CHEMBL1127749 (J Med Chem, 1994)

Columns and labels:
[1] = target: Muscarinic acetylcholine receptor M2 (Mus musculus) (UniProt Q9ERZ4); assay: In vivo determination of peripheral M2 receptor mediated tremor, cholinergic side effect
[2] = target: Muscarinic acetylcholine receptor M2 (Mus musculus) (UniProt Q9ERZ4); assay: In vivo determination of peripheral M2 receptor mediated salivation, cholinergic side effect
[3] = target: Muscarinic acetylcholine receptor M2 (Mus musculus) (UniProt Q9ERZ4); assay: In vivo determination of peripheral M2 receptor mediated hypothermia, cholinergic side effect
[4] = target: Muscarinic acetylcholine receptor M2 (Mus musculus) (UniProt Q9ERZ4); assay: Compound was tested against peripheral M2 receptor mediated cholinergic side effect hypothermia; Very flat dose-response curve with about 50% of maximum response at 350 umol/kg

| Compound | ED50 [1] [µmol/kg] | ED50 [2] [µmol/kg] | ED50 [3] [µmol/kg] | ED50 [4] [µmol/kg] |
| --- | --- | --- | --- | --- |
| CN1CCC=C(c2cnn(C)n2)C1 | > 110 | 3.6 | 5.3 | – |
| CCn1nnc(C2=CCCNC2)n1 | > 150 | 41 | 78 | – |
| C[N+](C)(C)CCOC(N)=O | – | 120 | 90 | – |
| CCN1C(=O)CC2(CCN(C)CC2)C1=O | 38 | 2.5 | 8.6 | – |
| CCn1ncc(C2=CCCNC2)n1 | 60 | 12 | 19 | – |
| CCCCn1ncc(C2=CCCN(C)C2)n1 | 72 | > 160 | 60 | – |
| CCn1ncc(C2=CCCN(C)C2)n1 | 180 | 400 | – | 350 |
